# Measurements as given in patent US7666996B2, “Casein derived peptides and uses thereof” (priority 2000, dated 2010).
# Experiments:
# [1] = test system: Non-Obese Diabetic (NOD) mice; experiment: Glucosuria in Non-Obese Diabetic (NOD) mice; assay type: in vivo; settings: additional series, assayed at week 16; data not shown
# Description: Juvenile (Type I, IDDM) diabetes in Non-Obese Diabetic (NOD) mice:
# Peptides derived from natural casein: NOD mice are a commonly used model for research of autoimmune disease and human Juvenile Diabetes. Six week old female NOD mice received either one or two injections per week of 100 μg of peptides derived from natural casein, for a total of 5 or 10 treatments. Control mice received no treatment. The severity of disease was determined according to glucosuria, which was measured using Combi test sticks [Gross, D. J. et al (1994), Diabetology, 37:1195]. Results were expressed as the percent of glucosuria-free mice in each sample over a 365-day period.
# Synthetic peptides derived from casein: In another experiment, 6 week old female NOD mice received one injection per week of 100 μg of Synthetic peptides derived from casein for a total of 5 treatments. Control mice received no treatment. Results were expressed as the number of healthy mice in the various treated groups.
# [2] = test system: human Peripheral Blood Stem Cells (K562 target cells); experiment: Natural Killer (NK) cell activity in cultured human PBSC; assay type: cell-based
# Description: From human Peripheral Blood Stem Cells (PBSC): PBSC of G-CSF treated subjects were separated on a FICOLL gradient, washed twice with RPMI-1640 medium containing 10% FCS and glutamine and seeded into 1.5 ml wells with or without peptides derived from natural casein or synthetic peptides derived from casein, as indicated, (0-500 μg per ml). Following two days incubation the cells were assayed for Natural Killer activity by measuring radioactivity released from ^35S-labeled K562 target cells (NEG-709A, 185.00 MBq, […] EASYTAGth Methionine, L-[^35S] 43.48 TBq per mmol, 1175.0 Ci per mmol, 0.488 ml, Boston USA). Two concentrations of effector cells (2.5×10^5 and 5×10^5 cells per well) were incubated with 5×10^3 target cells per well (effector:target cell ratios of 50:1 and 100:1, respectively) in U-bottomed 96 well tissue culture plates. The cells were incubated for 5 hours at 37° C. in 5% CO2, 95% air and precipitated by 5 minutes centrifugation at 1000 rpm. ^35S release was measured in 50 μl samples of the supernatant liquid.
# [3] = test system: HIV-1 (CEM lymphocyte cells); experiment: Inhibition of HIV-1 infection of CEM lymphocytes; assay type: cell-based; settings: for Lymphocyte cell numbers: day 7; for HIV-1 infection level, HIV-P24 antigen: control 0.52
# Description: Peptides: Peptides [either peptides derived from natural casein or synthetic peptides derived from casein (2-26 amino acids in length, see table 3)] supplied as lyophilized powder were resuspended in RPMI complete medium and added to cell cultures at a final concentrations of 50 to 1000 μg per ml.
# Cells: Several types of freshly isolated human cells (primary cells) and cell lines are known to be susceptible to in vitro HIV-1 infection, although essentially any cell displaying even low surface levels of the CD4 molecule can be considered a potential target for HIV-1 infection. Two commonly used human cell lines which are highly sensitive for HIV-1 infection were chosen, CEM and Sup-T1.
# CEM is a human T4-lymphoblastoid cell line initially derived by G. E. Foley et al. [(1965), Cancer 18:522] from peripheral blood buffy coat of a person with acute lymphoblastic leukemia. These cells were continuously maintained in suspension in medium, and have been used widely for analysis of infectivity, antiviral agents and neutralizing antibodies.
# Virus: The HIV virus strain employed was HIV-1IIIB, originally designated HTLV-IIIB. Concentrated culture fluids of peripheral blood from several patients with AIDS or related diseases were used to establish a permanent productive infection in H-9 cells. This subtype B virus has high capacity to replicate in human T-cell lines. Viral titer was 5.38 ng per ml in stock solution.
# HIV-1 P^24 antigen capture assay: An HIV-1 P^24 Antigen capture assay kit employed was designed to quantitate the HIV-1 P^24 core antigen, which is proportionally related to the degree of viral production in cells. This kit was purchased from the AIDS Vaccine program of the SAIC-NCI-Frederick Cancer Research Institute, P.O. Box B, Frederick, Md. 21702, USA and included 96 well plates coated with monoclonal antibody to HIV-1 P^24, primary antibody-rabbit anti-HIV P^24 serum, secondary antibody-Goat anti-rabbit-IgG (H+L) peroxidase conjugated antibody, TMB peroxidase substrate system and lysed HIV-1 P^24 standard. The HIV-1 P^24 antigen capture assay was analyzed by Organon-Technica ELISA reader at 450 nm with a reference at 650 nm.
# HIV-1 P^24 antigen capture ELISA: HIV infection was measured with an indirect enzyme immunoassay which detects HIV-1 P^24 core antigens in tissue culture media. Tissue culture supernatant was reacted with primary rabbit anti-HIV-1 P^24 antigen and visualized by peroxidase conjugated goat anti rabbit IgG. The reaction was terminated by adding 4N H2SO4, wherein the intensity of the color developed is proportional to the amount of HIV-1 antigen present in the tissue culture supernatant.
# HIV infection of human cultured CD4 cells: For longer incubations, the cells (CEM, Sup-T1) were preincubated with several increasing concentrations of peptides derived from natural casein (50-1000 μg per ml) or synthetic peptides derived from casein (10-500 μg per ml) for 24 (for synthetic and natural peptides) and 48 (only for natural peptides) hours and HIV-1IIIB (45 pg per ml final concentration) was added to each well thereafter. For the shorter incubations (3 hours), HIV-1IIIB was preincubated with the peptides for 3 hours and then added to cells (5000 cells/well) in tissue culture plates. Controls were IF (Infected, cells cultured with HIV-1 and without peptides), UIF (Uninfected, cells cultured without HIV-1 and without peptides) and UIF +Ch (Uninfected+peptides derived from natural casein, cells cultured in the presence of peptides derived from natural casein {50-1000 μg per ml}) to test the effect of peptides derived from natural casein and synthetic peptides derived from casein on cell viability and growth. Cells were counted for viability and proliferation rate on day 7, 10 and day 14 post infection (the day of P^24 antigen culture supernatant harvest). Cells and tissue culture supernatants (media) were harvested and lysed immediately in 1/10 volume of 10% Triton X-100. […]
# [4] = test system: murine bone marrow progenitor cells; experiment: CFU-GEMM colonies from murine bone marrow cells, differential counts; assay type: cell-based; settings: 53% in controls
# Description: Proliferation of megakaryocytes in multipotential colonies (CFU-GEMM) from murine bone marrow cells: Primary bone marrow cells (1×10^5 per ml) from 8-12 week-old C3H/HeJ […], 95% air, at 37° C. The medium, appropriate for the growth of multipotential colonies (CFU-GEMM), contained 1% BSA (Sigma), 10^−4 M thioglycerol (Sigma), 2.8×10^−4 M human transferrin (TF, Biological industries, Israel), 10% WEHI-CM as a source of IL-3 and 2 units per ml erythropoietin (rhEPO, R & D Systems, Minneapolis). […] They were picked with a micropipette, cytocentrifuged and stained with May-Grunwald-Giemsa for differential counts. At least 700 cells were counted for each preparation.
# Proliferation of Dendritic cells in CFU-GEMM: Multipotent (CFU-GEMM) colonies grown from primary bone marrow cells as described for the assay of megakaryocyte proliferation above were collected, stained and counted for dendritic cells. At least 700 cells were counted for each preparation.
# Proliferation of Plasma cells in CFU-GEMM: Multipotent (CFU-GEMM) colonies grown from primary bone marrow cells as described for the assay of megakaryocyte proliferation above were collected, stained and counted for plasma cells. At least 700 cells were counted for each preparation.
# Proliferation of Macrophage Cells in CFU-GEMM: Multipotent (CFU-GEMM) colonies grown from primary bone marrow cells as described for the assay of megakaryocyte proliferation above were collected, stained and counted for macrophage cells. At least 700 cells were counted for each preparation.
# Proliferation of Red Blood Cells in CFU-GEMM: Multipotent (CFU-GEMM) colonies grown from primary bone marrow cells as described for the assay of megakaryocyte proliferation above were collected, stained and counted for red blood cells. At least 700 cells were counted for each preparation.
# Proliferation of Polymorphonuclear Cells (PMN) in CFU-GEMM: Multipotent (CFU-GEMM) colonies grown from primary bone marrow cells as described for the assay of megakaryocyte proliferation above were collected, stained and counted for polymorphonuclear cells. […]
# [5] = test system: murine bone marrow progenitor cells; experiment: CFU-GM colony formation with IL-3 and G-CSF, murine bone marrow; assay type: cell-based
# Description: Cells were scored in the macroscopic colonies grown from murine bone marrow cells prepared similarly to the CFU-GEMM colonies previously described. Cells were incubated with hematopoietic factors cytokine (IL-3) and colony stimulating factor (G-CSF), and 25 μg or more of synthetic peptides derived from casein (J), representing amino acids 1-22 of α-S1 casein, or 30-4, representing amino acids 1-6 of α-S1 casein, for 14 days, individually or in combination. The stimulation of colony formation (CFU) is expressed as the number of myeloid colonies in 10^5 plated MNCs.
# Synthetic peptides derived from αS1-casein stimulate Granulopoietic (GM) cell proliferation in CFU-GM: As mentioned hereinabove, formation and expansion of CFU-GM (Granulocyte and Macrophage) colonies, and CFU-GEMM (Granulocyte, Erythroid, Macrophage and Megakaryocyte) colonies constitute one of the early events in the differentiation of hematopoietic progenitor cells in the bone marrow.
# [6] = test system: irradiated, bone marrow transplanted mice; experiment: Leukocyte and platelet reconstitution in bone marrow transplant recipient mice; assay type: in vivo; settings: 800 cGy; 1.0 mg i.p. daily, days 4-7
# Description: Leukocyte and platelet reconstitution in bone marrow transplant recipient Mice: BALB/c mice were sub-lethally irradiated at a source to skin distance of 70 cm, dosage of 50 cGy per minute, for a total of 600 cGy. The irradiated mice were […] casein, synthetic peptides derived from casein (13-26 amino acids, see Table 3 above), or human serum albumin (controls), following a double-blinded protocol. Leukocyte reconstitution was determined according to cell count in peripheral blood collected at indicated intervals from 6 to 12 days post treatment. Platelet reconstitution was determined by cell count in blood collected from the retro orbital plexus, into EDTA-containing vials, at indicated intervals from day 6 to day 15 post treatment. […]
# In a third series of experiments, the mice were irradiated (800 cGy), reconstituted and injected intraperitoneally with 1.0 mg synthetic peptides derived from casein (peptides 3a and 4P, representing the first 6 and 12 amino acids of the N terminus of αS1 casein, respectively—see Table 3 above) daily, on days 4, 5, 6 and 7 post-transplantation. Platelet reconstitution was assayed at 10 and 12 days post-transplantation.
# In a fourth series of experiments, F1 mice were irradiated (750 cGy), reconstituted with syngeneic bone marrow, and injected intravenously 24 hours later with 1 mg per mouse of synthetic peptides derived from casein representing amino acids 1-22 of the N terminus of αS1 casein. In addition, 2 (two) groups of mice were treated each with a natural fraction of αS1 casein position 1-23, and a fraction of peptides derived from natural κ-casein, representing amino acid coordinates 106-169 of κ-casein (SEQ ID NO: 27). WBC counts were conducted on days 5, 7, 10 and 12 post-transplantation.
Substance,prevention of onset of glucosuria (in words) [1],"target cell lysis relative to untreated controls ([2]; PBS cells from 5 donors with hematopoietic disease, 25-250 μg/ml)",effect on NK activity in PBSC from healthy human donors ([2]; healthy donors),"Lymphocyte cell numbers ([3]; 100 μg per ml, infected control 1.06×10^6)","HIV-1 infection level, HIV-P24 antigen ([3]; 100 μg/ml, 7 days post infection) [ng P^24 Antigen/ml]","Lymphocyte cell numbers ([3]; 500 μg per ml, infected control 1.06×10^6)","HIV-1 infection level, HIV-P24 antigen ([3]; 500 μg/ml, 7 days post infection) [ng P^24 Antigen/ml]","red blood cells, % of total cell count [4] [%]","myelocyte formation with G-CSF and IL-3 (in words) ([5]; 25 μg or more, 14 days)",increase in proliferation of granulocytes ([5]; in the presence of G-CSF) [%],"increase in platelet counts over control, 12 days post transplantation [6] [%]","platelet counts, 12 days post transplantation [6] [mL⁻¹]","Cell counts ([3]; 25 μg per ml, virus pre-treated 3 hours, infected control 1.06×10^6)","Cell numbers ([3]; 250 μg per ml, virus pre-treated 3 hours, infected control 1.06×10^6)","HIV-P24 antigen, viral particles vs infected control (in words) ([3]; virus preincubated 3 hours, 7 days post infection)"
"RPK [1P, synthetic peptide, N-terminal 3 amino acids of αS1 casein]",effectively prevented the onset of glucosuria,from 2- to greater then 8-fold,No significant effect,1.29×10^6,0.17,2.01×10^6,0.14,,,,,,,,
"RPKH [2P, synthetic peptide, N-terminal 4 amino acids of αS1 casein]",effectively prevented the onset of glucosuria,,,,,,,71,,,,,,,
"RPKHPI [4P, synthetic peptide, N-terminal 6 amino acids of αS1 casein]",,,,,,,,,synergistic increase,18,29,872000,1.26×10^6,1.59×10^6,dose dependent reduction
